The subject of series [1] is S. aureus subspecies aureus Rosenbach, strain FDA 209. Briefly: ASTM E1153-14 glass coupon test, 5 min treatment, CFU plate counts. Type of series: cell-based, Staphylococcus aureus.
Excerpt: A freeze-dried stock of Staphylococcus (S. aureus subspecies aureus Rosenbach, strain FDA 209) was obtained from American Type Culture Collection (ATCC, Manassas, Va.). After rehydration and growth in appropriate culture medium (Staphylococcus: BD Tryptic soy broth lot #4335611), both plated stocks and stocks frozen in glycerol were created. Staphylococcus was qualified for absorbance at 600 nm versus colony forming units (CFU) by serially diluting inoculum and reading absorbance followed by plating of dilutions onto agar plates. […] Twenty microliters of the resulting inoculum were used to coat glass slides (Fisher), also known as test squares or coupons with 10^5 to 10^7 cells, as calculated from the standard curve generated from the absorbance qualification data, and allowed to dry in a 37° C. incubator for 40 minutes following ASTM E1153-14 (www.astm.org/Standards/E1153.htm). […]
After incubation for 5 minutes following ASTM E1153-14, the supernatant in the vial was sampled and placed on test agar plates at a volume of 0.2 ml. […] Colony forming units (CFU) for each plate were counted, recorded and averaged for each sample. […] Sample CFUs were analyzed for statistical significance using the Mann Whitney U test with significance level α=0.05. […]
In a further series the test system is Salmonella enterica. Briefly: Test coupons coated with Salmonella enterica, CFU reduction versus water. The conditions noted are these: 0.05M acetate buffer with or without 1.5 ppm aqueous ozone. Type of series: cell-based.
The subject of a further series is Klebsiella. Briefly: Test coupons coated with Klebsiella, CFU reduction versus water. Conditions: acetate buffer with or without 1.5 ppm aqueous ozone.
A short description of series [2]: Ability of the buffer to accept aqueous ozone (kiosk sensors and instrumentation). Type of series: physicochemical. Conditions: buffer at approximate pH 5.5 to 6, ozonated with the CCT 1.0 kiosk. From the text: Additionally, not all buffering compounds are suitable or effective for use as additives. […] The MES and ascorbate buffers were unable to accommodate the addition of aqueous ozone, showing no ozone in the resulting solution according to the kiosk sensors and instrumentation.

For series [3] the following is noted: cited from earlier work.
Series [4] relates to Staphylococcus aureus subspecies aureus Rosenbach, strain FDA 209. The experiment in a line: AOAC method (961.02) spray disinfection of glass coupons, 10 min, turbidity (+/-) in Letheen broth. Conditions: for coupons negative: range-finding; for Percent kill / Number− / Number+: 10 min; for Number−: negative coupons; for Number+: positive coupons. It counts as cell-based. From the text: A freeze-dried stock of Staphylococcus (Staphylococcus aureus subspecies aureus Rosenbach, strain FDA 209), as specified by the AOAC method (961.02), was obtained from ATCC. After rehydration and growth in appropriate culture medium (BD Tryptic soy broth lot #4335611), both plated stocks and stocks frozen in glycerol were created. Staphylococcus was quantified for absorbance at 600 nm versus colony forming units (CFU) by serially diluting inoculum and reading absorbance followed by plating of dilutions onto agar plates. Prior to aqueous ozone testing, growth medium was inoculated and incubated in a shaker incubator (New Brunswick Scientific, serial #890615130) at 37° C. for 24 hours and then transfer cultured two additional times with a final incubation of 48 hours. Twenty microliters of the resulting inoculum was used to coat glass slides (Fisher), also known as test squares or coupons, with 10^5 to 10^7 cells, as calculated from the standard curve generated from the absorbance qualification data, and allowed to dry in a 37° C. incubator for 40 minutes following ASTM E1153-14. After drying, treated coupons were sequentially treated with 1.5 or 4 ppm aqueous ozone alone, 1.5 or 4 ppm aqueous ozone combined with a predetermined dilution of PAA, or PAA alone, then incubated for 10 minutes at room temperature. Additionally, immediately before and after testing three inoculated untreated coupons were place in labeled 50 ml conical tubes containing 20 ml of Letheen broth, vortexed, pooled, and plated to provide carrier counts. The mean log 10 density (LD) of the carrier counts for S. aureus must be between 5.0 and 6.5 in order for the test to be valid in this method.
Briefly, aqueous ozone was generated using the free standing CCT 1.0 unit (mounted in a kiosk enclosure) at a concentration of 1.5 ppm or 4 ppm. The water source utilized by the CCT 1.0 was clean, cold, softened Omaha municipal tap water. […] Aqueous ozone was sterile collected in a biological safety cabinet before and used immediately. Treatments were applied to the appropriate freshly prepared coupons contained within labeled petri dishes using a sprayer provided by CleanCore.
Following the testing period, coupons were removed from the individual petri dishes and transferred to corresponding labeled 50 ml conical tubes containing 20 ml of Letheen broth. One sterile un-inoculated coupon and one inoculated untreated coupon were also transferred to separate labeled 50 ml conical tubes containing 20 ml of Letheen broth in order to provide sterility and viability controls, respectively. All testing vials were shaken then incubated at 36±1° C. for 48±2 hours, then visually assessed for turbidity(+). Positive sample vials were plated to determine colony morphology similarity to test organism. All test plates were plated with 0.2 ml spread onto 2 replicates using a glass spreader and a Bel-Art inoculating turntable. Results of testing were analyzed for statistical significance in SPSS using a McNemar exact test for dichotomous data, with a significance level of α=0.05.

Another series concerns Campylobacter jejuni. The experiment in a line: Antimicrobial spray on inoculated chicken carcasses, rinsate plate counts. Type of series: cell-based. The protocol:
(§1) Briefly, chicken carcasses (70 whole hen carcasses for 7 treatments and 10 replications) were inoculated with 400 mL of a cocktail containing Salmonella Typhimurium (UK-1), E. coli (J53), and Campylobacter jejuni (3×10^7 CFU/mL) and allowed to adhere for 60 minutes at 4° C. for a final concentration of 10^5-10^6 CFU/g. Chicken carcasses then received no treatment (negative control) or were then treated by spraying (4×5 seconds) with tap water, tap water with 10 ppm ozone, tap water with PAA (50 ppm), tap water with PAA (500 ppm), tap water with 10 ppm ozone and PAA (500 ppm), or tap water with 10 ppm ozone and PAA (50 ppm). Further, the ambient PAA was measured using a PAA specific sensor during treatment. After treatment, chicken carcasses were rinsed in 400 mL of neutralizing buffered peptone water (20.0 g of buffered peptone, 7 g of refined soy lecithin or equivalent, 1.0 g of sodium thiosulfate, 12.5 g of sodium bicarbonate, per 1 liter of deionized water) for 2 minutes with agitation. Subsequently, the rinsate was serially diluted, spread plated on Xylose Lysine Deoxycholate (XLD) and Blood Free Campylobacter Agar (BFCA; modified Charcoal-Cefoperazone-Deoxycholate agar (mCCDA)), and incubated aerobically at 37° C. for 24 hours and microaerophilic at 42° C. for 48 hours, respectively. Log-transformed counts were analyzed using one-way ANOVA in JMP 14.0. Means were separated using Tukey's HSD when P≤0.05.

Series [5] has as its system Salmonella Typhimurium (UK-1). The description is as above. It counts as cell-based. The conditions noted are these: spray 4x5 seconds; 500 ppm PAA with or without 10 ppm ozone. As to the method: as §1
The conditions of series [6]: humans, after exposure; cited from earlier work.
Where [7] appears, read: Table 16A, 1.5 ppm ozone and/or 15 ppm PAA.
Where [8] appears, read: Table 16B, 4 ppm ozone and/or 15 ppm PAA.
The mark [9] stands for this setting: Table 16C, 1.5 ppm ozone and/or 10 ppm PAA.
The mark [10] stands for this setting: Table 16D, 1.5 ppm ozone and/or 20 ppm PAA, three experiments.

The structures appear in SMILES notation.

For the molecule `CC(=O)O` [Acetic acid], the “log reduction of S. aureus CFU post treatment, compared to a water control” value in [1] (0.05M acetate buffer with or without 1.5 ppm aqueous ozone) is listed as “less than 1 log”. In series [1] (acetate buffer alone, no ozone), this molecule registered a reduction versus water of 66.92%. The “log reduction of Salmonella CFU versus water” value in the series with Salmonella enterica is 1 log. The “log reduction in Klebsiella CFU versus the water control” value in the series with Klebsiella was found to be 1 log.

Consider `O=C1O[C@H]([C@@H](O)CO)C(O)=C1O` [Ascorbic acid], for which, in [2], the “ozone in the resulting buffered solution” value was “no ozone”.

As to `O=C(O)CC(O)(CC(=O)O)C(=O)O` [Citric acid], the “ozone in the resulting buffered solution” value in [2] is “did accept ozonation”.

For `O=S(=O)(O)CCN1CCOCC1` [MES, 2-(N-morpholino) ethane sulfonic acid], in series [2], the “ozone in the resulting buffered solution” value was “no ozone”.

Regarding `O=C(O)C(=O)O` [Oxalic acid], the “ozone in the resulting buffered solution” value in series [2] is given as “did accept ozonation”. In series [3], the “pKa (second value)” value is reported as 4.40.

For `CC(=O)OO` [PAA, peracetic acid], the coupons negative in series [4] (PAA 10 ppm in sterile water) is 3 out of 10 coupons; in series [4] (PAA 25 ppm in sterile water), 6 out of 10 coupons; in series [4] (PAA 50 ppm in sterile water) it was 9 out of 10 coupons; in [4] (PAA 100 ppm in sterile water) it was 9 out of 10 coupons. Also, the Percent kill in series [4] (setting [7]) stood at 76.7%; in [4] (setting [8]), 73.3%; in [4] (setting [9]), 6.7%; in [4] (setting [10]), 87.8%. Moreover, the “Number−” value was found to be 23 in series [4] (setting [7]), 22 in series [4] (setting [8]), 2 in series [4] (setting [9]) and 79 in series [4] (setting [10]). The “Number+” value in [4] (setting [7]) stood at 7; in series [4] (setting [8]), 8; in series [4] (setting [9]) it was 28; in series [4] (setting [10]), 11. In the series with Campylobacter jejuni (spray 4x5 seconds, 500 ppm PAA with or without 10 ppm ozone), the “log CFU per gram of C. jejuni on carcasses” value was determined as 4.81 log CFU/g. The “effect on Campylobacter compared to untreated controls” value in the series with Campylobacter jejuni (spray on chicken carcasses, P≤0.05) is “significantly reduced”. Further, the “log CFU per gram of Salmonella on carcasses” value in [5] is on record as 5.86 log CFU/g. Besides, the “PAA level that can cause irritation to the upper respiratory tract” value in series [6] was 5 ppm.

For `O=[O+][O-]` [aqueous ozone, ozone], the Percent kill in series [4] (setting [7]), in series [4] (setting [8]), in [4] (setting [9]) and in series [4] (setting [10]) was 0.0% each time. Further, the “Number−” value in series [4] (setting [7]), in series [4] (setting [8]), in series [4] (setting [9]) and in [4] (setting [10]) was 0 each time. Further, the “Number+” value was 30 in series [4] (setting [7]), 30 in [4] (setting [8]), 30 in series [4] (setting [9]) and 90 in series [4] (setting [10]).
